From ChEMBL document CHEMBL1135076, “Leishmanicidal activity of some aliphatic diamines and amino-alcohols” (Bioorg Med Chem Lett, 2002) come the findings set out here.

Type in all cases: functional, organism-based
For test [1], the system named is Leishmania donovani. Put plainly: In vitro for leishmanicidal activity against Leishmania donovani (PP75) at the concentration of 50 ug/mL.
Test [2] deals with Leishmania donovani. Put plainly: In vitro for leishmanicidal activity against Leishmania donovani (PP75) at the concentration of 25 ug/mL.
For test [3], the system named is Leishmania amazonensis. Put plainly: In vitro for leishmanicidal activity against Leishmania amazonensis (PH8) at the concentration of 100 ug/mL.
Test [4] has as its system Leishmania braziliensis. Put plainly: In vitro for leishmanicidal activity against Leishmania brasiliensis (2903) at the concentration of 25 ug/mL.
In test [5] the test system is Leishmania amazonensis. The test can be described thus: In vitro for leishmanicidal activity against Leishmania amazonensis (PH8) at 25 ug/mL; No lysis of parasites.
Test [6] has as its system Leishmania amazonensis. Put plainly: In vitro for leishmanicidal activity against Leishmania amazonensis (PH8) at the concentration of 50 ug/mL.
Test [7] deals with Leishmania braziliensis. The test can be described thus: In vitro for leishmanicidal activity against Leishmania brasiliensis (2903) at the concentration of 50 ug/mL.
Test [8] relates to Leishmania braziliensis. Put plainly: In vitro for leishmanicidal activity against Leishmania brasiliensis (2903) at the concentration of 10 ug/mL.
Test [9] concerns Leishmania donovani. Put plainly: Tested in vitro for leishmanicidal activity against Leishmania donovani (PP75) at the concentration of 10 ug/mL.
Test [10] has as its system Leishmania donovani. The test can be described thus: In vitro for leishmanicidal activity against Leishmania donovani (PP75) at the concentration of 100 ug/mL.
The test system of test [11] is Leishmania amazonensis. The test can be described thus: In vitro for leishmanicidal activity against Leishmania amazonensis (PH8) at the concentration of 10 ug/mL.
Test [12] deals with Leishmania braziliensis. Put plainly: Tested in vitro for leishmanicidal activity against Leishmania brasiliensis (2903) at the concentration of 100 ug/mL; ++ indicates 80-90% lysis of parasites.

Turning to `CCCCCCCCCCCCCCC(N)CO` (configuration not stated), the Activity in [1], in [2], in test [3], in test [4], in test [5] and in test [6] was 80-90% lysis of parasites in each case. Moreover, the Activity in test [7], in test [8], in [9], in test [10], in [11] and in test [12] was 80-90% lysis of parasites each time.

Regarding `C[C@@H]1[C@H](O)[C@@H](C)/C=C/C=C/C=C/C=C/C=C/C=C/C=C/[C@H](O[C@@H]2O[C@H](C)[C@@H](O)[C@H](N)[C@@H]2O)C[C@@H]2O[C@](O)(C[C@@H](O)C[C@@H](O)[C@H](O)CC[C@@H](O)C[C@@H](O)CC(=O)O[C@H]1C)C[C@H](O)[C@H]2C(=O)O`, the Activity entry in test [1], in [3], in test [6] and in test [10] was “+” in each case.

With `CCCCCCCCCCCCCCC(COC(=O)CCCCCC)NC(=O)CCCCCC` (configuration not stated), the Activity in [1], in [2], in test [3], in test [4], in test [5] and in test [6] was 80-90% lysis of parasites each time. The Activity in test [7], in [8], in test [9], in [10], in test [11] and in test [12] was 80-90% lysis of parasites each time.

As for `CCCCCCCCCCCCCCC(CN)NC(=O)OC(C)(C)C` (configuration not stated), the Activity in test [1], in test [2], in [3], in test [4], in test [5] and in [6] was 80-90% lysis of parasites in each case. The Activity in [7], in test [8], in test [9], in test [10], in test [11] and in test [12] was 80-90% lysis of parasites each time.

As for `CCCCCCCCCCCCCCC(N)CN` (configuration not stated), the Activity in [1], in test [2], in test [3], in [4], in test [5] and in test [6] was 80-90% lysis of parasites in each case. The Activity in test [7], in test [8], in test [9], in test [10], in test [11] and in [12] was 80-90% lysis of parasites throughout.
